Measurements taken from patent US20190298664A1, “METHOD AND KIT FOR MYOCARDIAL REPERFUSION, AND METHOD FOR ATTENUATING OR REDUCING MYOCARDIAL REPERFUSION INJURY” (Academia Sinica, priority 2018, published 2019).

Assays:
[1] = system: overall PTP activity in H9C2 cells; assay: Overall PTP activity (orthovanadate-sensitive fraction) by pNPP assay in H9C2 cells; format: cell-based; conditions: 5, 10 and 20 μmol/L for 20 min
Method: For heart tissue: At the end of the treatment, the left ventricle of mouse heart is gently homogenized in ice-cold RIPA buffer with Ser/Thr phosphatase inhibitors inside. Then the samples are centrifuged at 16,100×g for 10 min at 4° C. to remove the debris. Tissue extract (1 mg) is incubated with pNPP (2 mM) in reaction buffer at 37° C. for 60 min on a shaker. At the end of incubation, the reaction is terminated by addition of the same volume of 0.1 N NaOH. The released p-nitrophenolate ion is measured by spectrophotometry reading the absorbance at 405 nm. For H9C2 cell: At the end of the treatment, the cells are collected in ice-cold RIPA buffer with Ser/Thr phosphatase inhibitors inside. Then the samples are centrifuged at 16,100×g for 10 min at 4° C. to remove the debris. The cell lysate is incubated with pNPP […] in reaction buffer at 37° C. for 90 min on a shaker. The reaction is terminated by adding the same volume of 0.1 N NaOH. The released p-nitrophenolate ion is measured by spectrophotometry reading the absorbance at 405 nm. H9C2 cell lines were purchased from ATCC® organization, U.S. Cell cultures were maintained in Dulbecco modified Eagle medium (DMEM) supplemented with 10% fetal bovine serum (FBS) and 1% Penicillin/Streptomycin at 37° C. incubator in a 5% CO2 humid atmosphere.

I/R mice [2] = assay: Myocardial infarct size (Evans blue/TTC staining) in I/R mice; format: in vivo, mouse; conditions: 2 mg/kg IP
Method: (§1) We anesthetized the mouse with 5% isoflurane mixed with room air until loss of sensation of pain and then maintained the mouse in anesthesia status with 2% isoflurane mixed with room air through the whole procedure. The mouse's body temperature was maintained at 37° C. by a heating pad. After the mouse was intubated, we provided artificial ventilation to the mouse with a small animal ventilator. Then the chest cavity was opened at the second intercostal space and homemade chest retractors were utilized to widen the incision. We pulled the pericardium apart carefully and exposed the left anterior descending artery (LAD). A 7-0 silk was put underneath the LAD at the position of the tip of the left auricle, a 6 mm length of PE-10 tube was put on the surface of the LAD, and then a double knot was made to occlude the blood flow of LAD. The success of ligation was confirmed by paling the anterior wall of the LV. For the reperfusion group, the LAD knot would be untied for the purpose of reperfusion after 1 hour of ischemia. For the sham operation group, all procedures were the same except for the knot that occluded the LAD flow. After the successful procedure, we left the silk in situ, closed the chest cavity and weaned the animal from the ventilator.
At the end of experiment, the animal was sacrificed. We opened the chest cavity and exposed the heart and aorta. The heart was perfused with 0.9% saline from the apex until the coronary vessels and myocardium turning into pale color. After saline perfusion, the LAD knot was tied again. 1 mL of 1% Evans blue dye was delivered into the heart through the aortic root by retrograde injection. The dye uniformly perfused the whole heart except in the area of the heart previously perfused by the occluded coronary artery (area at risk, AAR). Then the heart was quickly removed, washed in ice-cold 0.9% saline followed by frozen at −20° C. for 20 minutes, then cut into slices of 1 mm with heart matrix. […] The areas stained with Evans blue negative but TTC-positive (AAR), and TTC-negative area (infarct area) were all measured digitally by ImageJ software. […]

I/R mice [3] = assay: Serum troponin I measurement in I/R mice; format: in vivo, mouse; conditions: 2 mg/kg IP
Method: as §1
Before the mouse was sacrificed, blood was drawn from the facial vein. The blood was put in the room temperature for 30 minutes and then centrifuged at 4° C. for 15 minutes at 5000 rpm. After centrifuging, the serum is collected for troponin I measurement with troponin I ELISA kit (KT-469, Kamiya Biomedical Company) according to the manufacture's protocol.

In the case of `CC(=O)OC[C@H]1O[C@@H]([S-])[C@H](OC(C)=O)[C@@H](OC(C)=O)[C@@H]1OC(C)=O.CCP(CC)CC.[Au+]` [Auranofin, auranofin], the “Overall PTP activity in H9C2 cells” value [1] is reported as “decreased”, the Infarct size (I/R mice [2]; four hours after reperfusion, versus vehicle-only controls) is reported as “significantly decreased” and the Infarct size (I/R mice [2]; one day after reperfusion) is reported as “smaller”. The “Serum troponin I level” value (I/R mice [3]; 4 hours post-I/R) was “reduced” and the “Serum troponin I level” value (I/R mice [3]; one day after reperfusion) was “lower”.
